Reference: US20040002526A1, “Phospholipase D inhibitors and uses thereof” (Cell Therapeutics, Inc., priority 2002, published 2004)

The compounds below were run against T1, PLD (phospholipase D) (assay: In vitro assay of PLD activity ([3H]-choline release from labelled PC)). Conditions: Table 1, monocyclic thiazolidinones of Formula I; PLD isoform not stated.
T1 construct: fused on or other part: N-terminal polyhistidine tag (pFastBac HTc) on either enzyme
Format: biochemical, human
Description: Recombinant PLD1 and PLD2—Human PLD1 and PLD2 were isolated from Sf9 insect cells that had been infected with recombinant baculovirus vector, pFastBac™HTc vector (Life Technologies, Gaithersburg, Md.), containing PLD1 or PLD2 cDNAs.
PLD1 activity was assayed by measuring the generation of [^3H]-choline from [choline-methyl^3H](16:0, 16:0)PC.
The assay procedure for PLD2 was similar to that for PLD1, with the exception that arf1, PKC-α, and GTPγS were omitted from the reaction mixture. After addition of enzymes, the reactions were incubated for 1 hour at room temperature. Twenty microliters of 12% trichloroacetic acid (TCA) then were added to each sample, to stop the reaction and to precipitate the unreacted [choline-methyl^3H](16:0, 16:0)PC. Thereafter, the samples were passed through 0.65 μm Millipore 96 well filter plates to removed the excess [choline-methyl^3H](16:0, 16:0)PC. For each sample the filtrate (50 μl), which contained the [^3H]-choline released by PLD cleavage of PC, was analyzed using a TopCount™ Liquid Scintillation Counter, a product of Packard (Meriden, Conn.).

Row | IC50 | Compound
1 | less active | COC(=O)c1ccc(-c2ccc(/C=C3\SC(=O)NC3=O)o2)cc1 [Compound 31, 4-[5-(2,4-dioxo-thiazolidin-5-ylidenemethyl)-furan-2-yl]-benzoic acid methyl ester]
2 | less active | COC(=O)c1ccc(-c2ccc(/C=C3\SC(=O)N(CC4CC4)C3=O)o2)cc1 [Compound 33, 4-[5-(3-cyclopropylmethyl-2,4-dioxo-thiazolidin-5-ylidenemethyl)-furan-2-yl]-benzoic acid methyl ester]
3 | less active | COC(=O)c1ccc(-c2ccc(/C=C3\SC(=S)N(Cc4cc(OC)c(OC)c(OC)c4)C3=O)s2)cc1 [Compound 36, 4-{5-[4-oxo-2-thioxo-3-(3,4,5-trimethoxy-benzyl)-thiazolidin-5-ylidenemethyl]-thiophen-2-yl}-benzoic acid methyl ester]

Same assay, conditions: Table 1, monocyclic thiazolidinones of Formula I; PLD isoform not stated; read-out: IC50

Row | Compound | IC50 [nM]
4 | O=C(O)CN1C(=O)/C(=C\c2ccc(-c3ccccc3)o2)SC1=S [Compound 1, [4-oxo-5-(5-phenyl-furan-2-ylmethylene)-2-thioxo-thiazolidin-3-yl]-acetic acid] | 4000
5 | O=C(O)CN1C(=O)/C(=C\c2ccc(-c3cccc(Cl)c3)o2)SC1=S [Compound 3, {5-[5-(3-chloro-phenyl)-furan-2-ylmethylene]-4-oxo-2-thioxo-thiazolidin-3-yl}-acetic acid] | 2000
6 | O=C(O)CCN1C(=O)/C(=C/c2ccc(-c3ccccc3Cl)o2)SC1=S [Compound 4, 3-{5-[5-(2-chloro-phenyl)-furan-2-ylmethylene]-4-oxo-2-thioxo-thiazolidin-3-yl}-propionic acid] | 800
7 | O=C(O)CN1C(=O)/C(=C\c2ccc(-c3ccccc3Cl)o2)SC1=S [Compound 5, {5-[5-(2-chloro-phenyl)-furan-2-ylmethylene]-4-oxo-2-thioxo-thiazolidin-3-yl}-acetic acid] | 1800
8 | O=C(O)c1cccc(-c2ccc(/C=C3/SC(=S)N(c4cccc(Cl)c4)C3=O)o2)c1 [Compound 6, 3-{5-[3-(3-chloro-phenyl)-4-oxo-2-thioxo-thiazolidin-5-ylidenemethyl]-furan-2-yl}-benzoic acid] | 400
9 | COc1ccc(N2C(=O)/C(=C\c3ccc(-c4cccc(C(=O)O)c4)o3)SC2=S)cc1 [Compound 7, 3-{5-[3-(4-methoxy-phenyl)-4-oxo-2-thioxo-thiazolidin-5-ylidenemethyl]-furan-2-yl}-benzoic acid] | 1300
10 | O=C(O)c1ccc(-c2ccc(/C=C3\SC(=S)N(c4cccc(C(F)(F)F)c4)C3=O)o2)cc1 [Compound 8, 4-{5-[4-oxo-2-thioxo-3-(3-trifluoromethyl-phenyl)-thiazolidin-5-ylidenemethyl]-furan-2-yl}-benzoic acid] | 1400
11 | CCN1C(=O)/C(=C\c2ccc(-c3cccc(C(=O)O)c3)o2)SC1=S [Compound 9, 3-[5-(3-ethyl-4-oxo-2-thioxo-thiazolidin-5-ylidenemethyl)-furan-2-yl]-benzoic acid] | 600
12 | Cc1cccc(N2C(=O)/C(=C/c3ccc(-c4ccc(C(=O)O)cc4)o3)SC2=S)c1 [Compound 10, 4-[5-(4-oxo-2-thioxo-3-m-tolyl-thiazolidin-5-ylidenemethyl)-furan-2-yl]-benzoic acid] | 600
13 | Cc1cccc(N2C(=O)/C(=C/c3ccc(-c4cccc(C(=O)O)c4)o3)SC2=S)c1 [Compound 11, 3-[5-(4-oxo-2-thioxo-3-m-tolyl-thiazolidin-5-ylidenemethyl)-furan-2-yl]-benzoic acid] | < 400
14 | COc1ccc(N2C(=O)/C(=C\c3ccc(-c4ccc(C(=O)O)cc4)o3)SC2=S)cc1 [Compound 12, 4-{5[3-(4-methoxy-phenyl)-4-oxo-2-thioxo-thiazolidin-5-ylidenemethyl]-furan-2-yl}-benzoic acid] | < 400
15 | O=C(O)c1ccc(-c2ccc(/C=C3\SC(=S)N(c4cccc(F)c4)C3=O)o2)cc1 [Compound 13, 4-{5-[3-(3-fluoro-phenyl)-4-oxo-2-thioxo-thiazolidin-5-ylidenemethyl]-furan-2-yl}-benzoic acid] | 1700
16 | O=C(O)c1ccc(-c2ccc(/C=C3\SC(=S)N(Cc4ccccc4)C3=O)o2)cc1 [Compound 14, 4-[5-(3-benzyl-4-oxo-2-thioxo-thiazolidin-5-ylidenemethyl)-furan-2-yl]-benzoic acid] | < 400
17 | Cc1ccc(N2C(=O)/C(=C/c3ccc(-c4ccc(C(=O)O)cc4)o3)SC2=S)c(C)c1 [Compound 15, 4-{5-[3-(2,4-dimethyl-phenyl)-4-oxo-2-thioxo-thiazolidin-5-ylidenemethyl]-furan-2-yl}-benzoic acid] | < 400
18 | O=C(O)c1cccc(-c2ccc(/C=C3\SC(=S)N(Cc4ccccc4)C3=O)o2)c1 [Compound 16, 3-[5-(3-benzyl-4-oxo-2-thioxo-thiazolidin-5-ylidenemethyl)-furan-2-yl]-benzoic acid] | < 900
19 | O=C(O)c1ccc(-c2ccc(/C=C3\SC(=S)N(C4CCCCC4)C3=O)o2)cc1 [Compound 17, 4-[5-(3-cyclohexyl-4-oxo-2-thioxo-thiazolidin-5-ylidenemethyl)-furan-2-yl]-benzoic acid] | 500
20 | O=C(O)c1cccc(-c2ccc(/C=C3\SC(=S)N(c4cccc(F)c4)C3=O)o2)c1 [Compound 18, 3-{5-[3-(3-fluoro-phenyl)-4-oxo-2-thioxo-thiazolidin-5-ylidenemethyl]-furan-2-yl}-benzoic acid] | < 400

Results, then the compound that gave them:

Row | IC50 [nM] | Compound
21 | < 400 | Cc1ccc(N2C(=O)/C(=C/c3ccc(-c4cccc(C(=O)O)c4)o3)SC2=S)c(C)c1 [Compound 19, 3-{5-[3-(2,4-dimethyl-phenyl)-4-oxo-2-thioxo-thiazolidin-5-ylidenemethyl]-furan-2-yl}-benzoic acid]
22 | 500 | C=CCN1C(=O)/C(=C\c2ccc(-c3cccc(C(=O)O)c3)o2)SC1=S [Compound 20, 3-[5-(3-allyl-4-oxo-2-thioxo-thiazolidin-5-ylidenemethyl)-furan-2-yl]-benzoic acid]
23 | 400 | O=C(O)CCCN1C(=O)/C(=C/c2ccc(-c3ccc(Cl)c(Cl)c3)o2)SC1=S [Compound 21, 4-{5-[5-(3,4-dichloro-phenyl)-furan-2-ylidenemethyl]-4-oxo-2-thioxo-thiazolidin-3-yl}-butyric acid]
24 | 1600 | O=C(O)CCCN1C(=O)/C(=C/c2ccc(-c3ccc(O)c(O)c3)o2)SC1=S [Compound 22, 4-{5-[5-(3,4-dihydroxy-phenyl)-furan-2-ylidenemethyl]-4-oxo-2-thioxo-thiazolidin-3-yl}-butyric acid]
25 | 9000 | O=C(O)c1ccc(N2C(=O)/C(=C/C=C/c3ccccc3)SC2=S)cc1 [Compound 23, 4-[4-oxo-5-(3-phenyl-allylidene)-2-thioxo-thiazolidin-3-yl]-benzoic acid]
26 | < 400 | O=C(O)c1cccc(-c2ccc(/C=C3\SC(=S)N(C4CCCCC4)C3=O)o2)c1 [Compound 24, 3-[5-(3-Cyclohexyl-4-oxo-2-thioxo-thiazolidin-5-ylidenemethyl)-furan-2-yl]-benzoic acid]
27 | 3000 | COC(=O)c1ccc(-c2ccc(/C=C3\SC(=S)N(Cc4cc(OC)c(OC)c(OC)c4)C3=O)o2)cc1 [Compound 26, 4-{5-[4-oxo-2-thioxo-3-(3,4,5-trimethoxy-benzyl)-thiazolidin-5-ylidenemethyl]-furan-2-yl}-benzoic acid methyl ester]
28 | 3000 | COc1cc(CN2C(=O)/C(=C/c3ccc(-c4ccc(C(=O)O)cc4)o3)SC2=S)cc(OC)c1OC [Compound 27, 4-{5-[4-oxo-2-thioxo-3-(3,4,5-trimethoxy-benzyl)-thiazolidin-5-ylidenemethyl]-furan-2-yl}-benzoic acid]
29 | 1500 | COC(=O)c1ccc(-c2ccc(/C=C3\SC(=S)N(CCCN4CCOCC4)C3=O)o2)cc1 [Compound 28, 4-{5-[3-(3-morpholin-4-yl-propyl)-4-oxo-2-thioxo-thiazolidin-5-ylidenemethyl]-furan-2-yl}-benzoic acid methyl ester]
30 | 4000 | O=C(O)c1ccc(-c2ccc(/C=C3\SC(=S)N(c4ccccc4)C3=O)o2)cc1 [Compound 29, 4-[5-(4-oxo-3-phenyl-2-thioxo-thiazolidin-5-ylidenemethyl)-furan-2-yl]-benzoic acid]
31 | 16000 | COC(=O)c1ccc(-c2ccc(/C=C3\SC(=S)N(Cc4ccccc4)C3=O)o2)cc1 [Compound 30, 4-[5-(3-benzyl-4-oxo-2-thioxo-thiazolidin-5-ylidenemethyl)-furan-2-yl]-benzoic acid methyl ester]
32 | 1500 | O=C(O)c1ccc(-c2ccc(/C=C3\SC(=S)N(Cc4ccccc4C(F)(F)F)C3=O)o2)cc1 [Compound 34, 4-{5-[4-oxo-2-thioxo-3-(2-trifluoromethyl-benzyl)-thiazolidin-5-ylidenemethyl]-furan-2-yl}-benzoic acid]
33 | 2000 | Cc1ccc(CN2C(=O)/C(=C/c3ccc(-c4ccc(C(=O)O)cc4)o3)SC2=S)cc1 [Compound 35, 4-{5-[3-(4-methyl-benzyl)-4-oxo-2-thioxo-thiazolidin-5-ylidenemethyl]-furan-2-yl}-benzoic acid]
34 | 5000 | O=C(O)c1ccc(-c2ccc(/C=C3\SC(=S)N(Cc4cccs4)C3=O)s2)cc1 [Compound 37, 4-[5-(4-oxo-3-thiophen-2-ylmethyl-2-thioxo-thiazolidin-5-ylidenemethyl)-thiophen-2-yl]-benzoic acid]
